Experimental data taken from US11104661B1, “Inhibiting human integrin (α-4) (β-7)” (Morphic Therapeutic, Inc., priority 2019, dated 2021).

What follows are molecules tested against T1, integrin α4β7 (Homo sapiens, UniProt P13612+P26010) (assay: Fluorescence polarization (FP) assay for α4β7 binding (Example 5)). Settings: competition with fluorescein-labeled peptide, 6.5 nM integrin α4β7, 2 mM manganese chloride; Table 3.
T1 sequence (P13612 35-977 limits assumed): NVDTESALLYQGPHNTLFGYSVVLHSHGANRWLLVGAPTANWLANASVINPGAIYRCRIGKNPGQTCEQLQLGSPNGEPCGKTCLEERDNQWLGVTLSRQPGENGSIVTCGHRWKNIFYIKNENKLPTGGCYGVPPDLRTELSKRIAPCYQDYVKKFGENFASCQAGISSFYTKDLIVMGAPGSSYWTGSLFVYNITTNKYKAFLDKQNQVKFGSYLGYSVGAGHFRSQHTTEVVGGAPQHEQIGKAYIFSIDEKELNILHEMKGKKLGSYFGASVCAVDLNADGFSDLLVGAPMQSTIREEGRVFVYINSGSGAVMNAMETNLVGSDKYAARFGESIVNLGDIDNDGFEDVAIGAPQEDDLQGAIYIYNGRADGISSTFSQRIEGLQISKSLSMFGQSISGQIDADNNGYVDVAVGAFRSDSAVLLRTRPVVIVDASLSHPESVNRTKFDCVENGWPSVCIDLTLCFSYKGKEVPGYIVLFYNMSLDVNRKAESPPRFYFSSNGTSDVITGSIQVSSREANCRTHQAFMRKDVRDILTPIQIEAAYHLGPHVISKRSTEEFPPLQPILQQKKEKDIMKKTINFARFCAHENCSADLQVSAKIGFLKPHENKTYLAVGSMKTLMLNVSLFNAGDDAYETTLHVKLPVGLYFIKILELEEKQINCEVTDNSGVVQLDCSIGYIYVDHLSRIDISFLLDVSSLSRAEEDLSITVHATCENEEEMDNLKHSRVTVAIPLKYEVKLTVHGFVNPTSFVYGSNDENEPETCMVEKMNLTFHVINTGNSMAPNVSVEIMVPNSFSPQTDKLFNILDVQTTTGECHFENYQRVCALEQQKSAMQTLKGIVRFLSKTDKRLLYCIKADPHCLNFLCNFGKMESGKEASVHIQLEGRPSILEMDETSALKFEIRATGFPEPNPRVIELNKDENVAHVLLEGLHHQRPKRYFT
T1 sequence (P26010 20-723 limits assumed): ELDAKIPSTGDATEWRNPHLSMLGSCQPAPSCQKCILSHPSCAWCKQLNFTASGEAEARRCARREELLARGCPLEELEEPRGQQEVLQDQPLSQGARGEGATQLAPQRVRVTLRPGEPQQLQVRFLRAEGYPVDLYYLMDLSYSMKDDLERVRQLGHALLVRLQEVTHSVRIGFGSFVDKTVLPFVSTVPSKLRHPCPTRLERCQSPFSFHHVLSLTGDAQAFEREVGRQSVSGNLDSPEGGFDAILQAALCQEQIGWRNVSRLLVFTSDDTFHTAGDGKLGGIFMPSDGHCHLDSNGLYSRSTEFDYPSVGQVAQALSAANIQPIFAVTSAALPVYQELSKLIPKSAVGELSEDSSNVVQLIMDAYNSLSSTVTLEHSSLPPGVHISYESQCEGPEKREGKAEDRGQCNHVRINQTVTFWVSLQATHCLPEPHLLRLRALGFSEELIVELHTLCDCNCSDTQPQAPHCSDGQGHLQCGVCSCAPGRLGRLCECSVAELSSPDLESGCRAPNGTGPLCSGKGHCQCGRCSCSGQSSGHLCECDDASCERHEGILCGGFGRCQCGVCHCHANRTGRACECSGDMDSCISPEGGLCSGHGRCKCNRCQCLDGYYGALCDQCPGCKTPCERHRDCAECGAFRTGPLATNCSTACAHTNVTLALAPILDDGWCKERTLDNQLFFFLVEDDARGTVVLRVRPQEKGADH
Description: Compounds of Formula (I) were evaluated using a fluorescent polarization (FP) assay. FP assays are used to evaluate potency of compounds on purified protein. The FP assays consists of measuring purified integrin αβ heterodimer ecto domains or headpiece binding to surrogate or truncated ligands.
Three in vitro assays were used to examine the α4β7 mechanistic process used by cells: 1) ligand:receptor affinity, 2) the avidity of those interactions on a cell's surface, and 3) how those interactions fare under an imposing force. In Example 5, a Fluorescence Polarization (FP) assay is used to measure compound activity through binding competition with the fluorescein-labeled peptide. In Example 6, the potency of compounds against α4β7 is measured in the cell-based ligand binding assay (LBA), using RPMI 8866 cells incubated with the compound samples in competition with soluble MAdCAM-1 ligand. In Example 7, activity of compounds is evaluated in a cell adhesion assay that mechanistically tests what occurs in vivo when trafficking cells utilize α4β7 to adhere to MAdCAM-1 expressing HEVs of the gut during the extravasation process. In the cell adhesion assay of Example 7, a MAdCAMI1-(Fc) is coated on plastic, and α4β7 expressing cells (RPMI-8866) are allowed to adhere to the coated surface in the presence of the test compounds. Next, the force of washing with buffer is applied to cells thereby testing the strength of that adhesion. Unattached cells are removed and the remaining adherent cells are quantified.
Fluorescence Polarization (FP) assays were used to measure compound activity through binding competition with the fluorescein-labeled peptide […]{Lys(FITC)}. In the assay, 6.5 nM of integrin α4β7 was incubated with the test compound in 2 mM manganese chloride, 0.1 mM calcium chloride, 20 mM HEPES buffer at pH 7.3, 150 mM sodium chloride, 0.01% Triton X-100, 2% DMSO, and 3 nM of the fluorescein-labeled peptide. Running the assays in 384-well plates, the integrin protein was pre-incubated with the test compounds for 15 minutes at 22° C. before the fluorescein-labeled peptide was added. After the fluorescein-labeled peptide was added, the assay was incubated at 22° C. for 1 hour and fluorescence polarization was measured. IC50 values were determined by nonlinear regression, four-parameter curve fitting.

Row | IC50 [µM] | SMILES
1 | ≤ 0.01 | Cc1cc(-c2c(C)ccc(F)c2C)cc([C@H](CC(=O)O)NC(=O)C(CC(C)C)n2cc(CCN3CCC3)c(C(F)(F)F)cc2=O)c1F (single isomer, unassigned) [AF-P2]
2 | ≤ 0.01 | Cc1cccc(C)c1-c1cc([C@H](CC(=O)O)NC(=O)C(CC(C)C)n2cc(CCN3CCC3)c(C(F)(F)F)cc2=O)c(F)c(C(F)(F)F)c1 (single isomer, unassigned) [G-P2]
3 | ≤ 0.01 | Cc1cc(C)c(-c2cc(C)c(F)c([C@H](CC(=O)O)NC(=O)C(CC(C)C)n3cc(CCN(C)C)c(C(F)(F)F)cc3=O)c2)c(C)c1 (single isomer, unassigned) [AC-P2]
4 | ≤ 0.01 | Cc1cc(-c2c(C)cccc2C)cc([C@H](CC(=O)O)NC(=O)C(CC(C)C)n2cc(CCN3CC(F)C3)cc(F)c2=O)c1F (single isomer, unassigned) [AV-P2]
5 | ≤ 0.01 | Cc1cc(-c2c(C)cccc2C)cc([C@H](CC(=O)O)NC(=O)C(CC(C)C)n2cc(CCN3CC[C@@H](F)C3)cc(F)c2=O)c1F (single isomer, unassigned) [AU-P2]
6 | ≤ 0.01 | COc1ccc(C)c(-c2cc(C)c(F)c([C@H](CC(=O)O)NC(=O)C(CC(C)C)n3cc(CCN4CCC4)c(C(F)(F)F)cc3=O)c2)c1C (single isomer, unassigned) [AG-P2]

Same assay, conditions: competition with fluorescein-labeled peptide, 6.5 nM integrin α4β7, 2 mM manganese chloride; Table 4 comparative compounds

Row | IC50 [µM] | SMILES
7 | ≤ 0.01 | Cc1ccn([C@@H](CC(C)C)C(=O)N[C@@H](CC(=O)O)c2cncc(-c3c(C)cccc3C)c2)c(=O)c1
8 | ≤ 0.01 | Cc1cccc(C)c1-c1cccc([C@H](CC(=O)O)NC(=O)[C@H](CC(C)C)n2cc(CCN(C)C)ccc2=O)c1
9 | ≤ 0.01 | CC(C)C[C@@H](C(=O)N[C@@H](CC(=O)O)c1ccc(-c2ccc(F)cc2)cc1)n1cc(CCN(C)C)c(C(F)(F)F)cc1=O
10 | ≤ 0.01 | Cc1cccc(C)c1-c1cccc([C@H](CC(=O)O)NC(=O)[C@H](CC(C)C)n2ccc(CCN(C)C)cc2=O)c1
11 | ≤ 0.01 | Cc1cccc(C)c1-c1cccc([C@H](CC(=O)O)NC(=O)[C@H](CC(C)C)n2cc(CN3CC(F)C3)ccc2=O)c1 [drawing 577]
12 | 0.01 to 0.5 | CC(C)C[C@@H](C(=O)N[C@@H](CC(=O)O)c1ccc(-c2ccccc2)cc1)n1cc(CCN(C)C)c(C(F)(F)F)cc1=O
13 | ≤ 0.01 | Cc1cccc(C)c1-c1cccc([C@H](CC(=O)O)NC(=O)[C@H](CC(C)C)n2cc(CN3CC[C@@H](F)C3)ccc2=O)c1
14 | ≤ 0.01 | Cc1cccc(C)c1-c1cccc([C@H](CC(=O)O)NC(=O)[C@H](CC(C)C)n2cc(CN3CC(F)C3)ccc2=O)c1 [drawing 572]
15 | 0.01 to 0.5 | COC[C@@H](C(=O)N[C@@H](CC(=O)O)c1cccc(-c2c(C)cccc2C)c1)n1ccc(C)cc1=O
16 | ≤ 0.01 | Cc1ccccc1-c1cccc([C@H](CC(=O)O)NC(=O)[C@H](CC(C)C)n2cccc(C)c2=O)c1
17 | ≤ 0.01 | Cc1cccc(C)c1-c1cncc([C@H](CC(=O)O)NC(=O)C(CC(C)C)n2cc(C(F)(F)F)ccc2=O)c1 (some centres unmarked)
18 | ≤ 0.01 | CC(C)C[C@@H](C(=O)N[C@@H](CC(=O)O)c1ccc(-c2ccc(F)cc2)cc1)n1cc(CCN2CC(F)C2)cc(F)c1=O
19 | 0.01 to 0.5 | Cc1ccccc1-c1cc([C@H](CC(=O)O)NC(=O)[C@H](CC(C)C)n2ccccc2=O)ccc1C
20 | ≤ 0.01 | Cc1cccc(C)c1-c1cccc([C@H](CC(=O)O)NC(=O)[C@H](CC(C)C)n2cc(CN3CC(F)C3)ccc2=O)c1 [drawing 604]
21 | ≤ 0.01 | Cc1cccc(C)c1-c1cccc([C@H](CC(=O)O)NC(=O)[C@H](CC(C)C)n2cccc(CCN(C)C)c2=O)c1
22 | 0.01 to 0.5 | Cc1cccc(C)c1-c1cc([C@H](CC(=O)O)NC(=O)[C@H](CC(C)C)n2ccccc2=O)ccn1

Row | IC50 [µM] | SMILES
23 | ≤ 0.01 | Cc1cccc(C)c1-c1cccc([C@H](CC(=O)O)NC(=O)[C@H](CC(C)C)n2cc(CN3CC(F)C3)ccc2=O)c1 [drawing 589]
24 | ≤ 0.01 | Cc1cccc(C)c1-c1cccc([C@H](CC(=O)O)NC(=O)[C@H](CC(C)C)n2cc(CN3CC(F)C3)ccc2=O)c1 [drawing 585]
25 | 0.01 to 0.5 | Cc1ccccc1-c1cccc([C@H](CC(=O)O)NC(=O)[C@H](CC(C)C)n2ccncc2=O)c1
26 | ≤ 0.01 | Cc1cccc(C)c1-c1cccc([C@H](CC(=O)O)NC(=O)[C@H](CC(C)C)n2cc(CN3CC(F)C3)ccc2=O)c1 [drawing 599]
27 | ≤ 0.01 | Cc1cccc(C)c1-c1cncc([C@H](CC(=O)O)NC(=O)[C@H](CC(C)C)n2cc(CN3CC(F)C3)ccc2=O)c1
28 | 0.01 to 0.5 | COc1cccc(F)c1-c1cccc([C@H](CC(=O)O)NC(=O)[C@H](CC(C)C)n2cnc3ccccc3c2=O)c1
29 | 0.01 to 0.5 | Cc1ccccc1-c1cc([C@H](CC(=O)O)NC(=O)C(CC(C)C)n2ccccc2=O)ccn1 (some centres unmarked)
30 | 0.01 to 0.5 | Cc1ccccc1-c1cccc([C@H](CC(=O)O)NC(=O)[C@H](CC(C)C)n2ccccc2=O)c1
31 | ≤ 0.01 | Cc1cccc(C)c1-c1cccc([C@H](CC(=O)O)NC(=O)[C@H](CC(C)C)n2cc(CN3CC(F)C3)ccc2=O)c1 [drawing 594]
32 | ≤ 0.01 | Cc1cccc(C)c1-c1cncc([C@H](CC(=O)O)NC(=O)[C@H](CC(C)C)n2ccccc2=O)c1
33 | ≤ 0.01 | Cc1ccccc1-c1cc([C@H](CC(=O)O)NC(=O)C(CC(C)C)n2ccccc2=O)ccc1C#N (some centres unmarked)
34 | ≤ 0.01 | CC(C)C[C@@H](C(=O)N[C@@H](CC(=O)O)c1ccc(-c2ccccc2)cc1)n1cc(CCN2CC(F)C2)cc(F)c1=O
35 | ≤ 0.01 | Cc1ccc([C@@H](C(=O)N[C@@H](CC(=O)O)c2cncc(-c3c(C)cccc3C)c2)N2CC(C)CCC2=O)cc1 (some centres unmarked)
36 | 0.01 to 0.5 | COc1ccc([C@H](CC(=O)O)NC(=O)C(CC(C)C)n2ccccc2=O)cc1-c1ccccc1C (some centres unmarked)
37 | ≤ 0.01 | Cc1cccc(C)c1-c1cncc([C@H](CC(=O)O)NC(=O)[C@H](CC(C)C)n2ccc(C(F)(F)F)cc2=O)c1
38 | ≤ 0.01 | Cc1cccc(C)c1-c1cncc([C@H](CC(=O)O)NC(=O)[C@H](CC(C)C)N2CC[C@@H](C(F)(F)F)CC2=O)c1
